Source: US8722714B2, “Oxazolidine derivatives as NMDA antagonists” (The Honk Kong University of Science and Technology, priority 2008, dated 2014)

Experiments:
NMDA receptor = assay: Whole-cell patch clamp of NMDA-induced current in hippocampal neurons; assay type: cell-based, rat; details: for pooled NMDA current responses (normalized peak and plateau currents) / recovery of NMDA-induced current after compound was washed out: compound 500 uM co-applied with NMDA 200 uM; for pooled NMDA current responses (normalized peak and plateau currents): vs DMSO, n=6; for recovery of NMDA-induced current after compound was washed out: single hippocampal neuron
Experimental: Hippocampal neurons were prepared from embryonic day 18 Sprague-Dawley rats. After the hippocampus had been removed from the brain, isolated cells were plated onto Poly d-Lysine (PDL) (P0899, Sigma)-coated 35 mm dishes (153066, NUNC) at a density of 3×10^5 cell per plate using Neurobasal Medium (NB) (21103-049, Gibco) with B27 supplement (17504-044, Gibco), penicillin/streptomycin (15140, Gibco) and 1 mM L-glutamine (25030, Gibco). The cell culture was incubated at 37° C. in a humidified atmosphere of 5% CO2 in air. Half of the medium was changed with NB, B27 and 50 μM L-glutamine every 2 to 3 days. On day 12 in vitro (12 DIV), whole-cell patch clamp was performed. The internal solution contained 120 mM cesium chloride, 20 mM tetraethylammonium chloride, 2 mM magnesium chloride, 1 mM calcium chloride and 10 mM HEPES (pH 7.2). The external solution contained 137 mM sodium chloride, 1 mM sodium bicarbonate, 0.34 mM sodium phosphate dibasic, 5.37 mM potassium chloride, 0.44 mM potassium phosphate monobasic, 2.5 mM HEPES (pH 7.4) and 22.2 mM glucose. Samples mixed with 50 μM NMDA (M3262, Sigma) were arranged in linear array of up to 8 individual controlled pipes (List Medical, Germany) which were connected to solution reservoirs. Memantine (10 μM, M9292, Sigma) was used as a positive control. Pipettes were fire-polished to produce a pipette resistance of 3-5 MΩ. Holding potential of patched cells was kept at −80 mV and currents were recorded using Axopatch-200B amplifier (Axon Instruments, USA). Tetrodotoxin (5 μM) and bicuculline methiodide (20 μM) (0109, Tocris) were present in the bath solution to block synaptic transmission mediated by voltage-gated sodium channels and […], respectively. Data was analyzed by pClamp9 software and percentage of inhibition on NMDA-induced current was represented in comparison to solvent control.
The NMDA receptor is a gated ion channel, which allows inflow of current during a nerve impulse. Antagonists to the receptor would prevent the inflow of current.
In FIG. 1A, hippocampal neurons from embryonic day 18 rats were isolated, trypsinized, plated onto 35-mm plates at a density of 3×10^4 cells/plate and cultured in Neurobasal medium (NB) supplemented with B27 nutrient. Rat hippocampal neurons (10-14 DIV) were treated with NMDA (50 μM) in the absence or presence of the compound LC-02 (10 μg/mL). Data is presented as % of NMDA-induced current. DMSO is the solvent control.
(§1) In FIG. 1B, NMDA antagonistic effect of LC-02 on current responses of a single hippocampal neuron. NMDA (200 uM) was applied for 2.5 sec every 30 sec but these inter-response intervals have been deleted from the above figure for a better resolution of the kinetics of individual responses (blank space in trace). LC-02 (500 uM) was co-applied with NMDA.
In FIG. 1C, effects of LC-02 on pooled NMDA current responses. Normalized peak and plateau currents are shown in the absence (DMSO) and presence of LC-02.
as §1, with “8, (a)” for “1B,”, “LC-06” for “LC-02”, “NMDA. […] (b) Effects of LC-06 on pooled NMDA current responses. Normalized peak and plateau currents are shown in the absence (DMSO) and presence of LC-06.” for “NMDA.”
as §1, with “9, (a)” for “1B,”, “LC-24” for “LC-02”, “NMDA. […] (b) Effects of LC-24 on pooled NMDA current responses. Normalized peak and plateau currents are shown in the absence (DMSO) and presence of LC-24. […]” for “NMDA.”

ERK = assay: Western blot detection of ERK phosphorylation in rat cortical neurons; assay type: cell-based; details: 500 μM; rat cortical neurons 11 DIV; vs DMSO control
Experimental: (§2) Embryonic day 18 Sprague Dawley rat pups were decapitated, their brains removed, and the cortices were isolated. Tissues were triturated and isolated neurons were plated onto 60 mm plate and cultured with Neurobasal medium supplemented with 2% B27 (Invitrogen). Experiments were performed after 10-12 days in vitro (DIV). Cultured cells were stimulated with a test compound or vehicle control (DMSO) for different time intervals and then lysed with RIPA buffer including protease inhibitors. Cell lysates were stored at −80° C. before use. Before being loaded, the lysates were heated to 95° C. for 10 min, vortexed and centrifuged for 7 min at 15,000×g. Supernatants were electrophoresed on 10% SDS-polyacrylamide gel and transblotted to nitrocellulose membrane. The membranes were washed with 5% (w/v) powdered milk dissolved in PBS with 0.1% Triton X-100, followed by incubation at 4° C. overnight with rabbit polyclonal against phospho-ERK or phosphor-AKT (1:1000, Cell Signaling Technology). Next, the membranes were washed and incubated with horseradish peroxidase (HRP)-conjugated secondary antibodies. The signal was visualized using ECL Western Blotting Kit. Blots were stripped and probed for total ERK or AKT expression. […]
(§3) Western blot analysis was performed on the total cell lysates. Antibodies against phospho-ERK1/2 and phospho-AKT were used and detected with HRP conjugated secondary antibodies. […]

AKT = assay: Western blot detection of AKT phosphorylation in rat cortical neurons; assay type: cell-based; details: 500 μM; rat cortical neurons 11 DIV
Experimental: as §2, §3

CC[C@H]1N[C@@H](Cc2ccccc2)C(CC)(CC)O1 [LC-24]
pooled NMDA current responses (normalized peak and plateau currents) (NMDA receptor): significantly inhibits NMDA-induced current | recovery of NMDA-induced current after compound was washed out (NMDA receptor): Partial recovery of NMDA-induced current

CC[C@H]1N[C@@H](CC(C)C)C(CC)(CC)O1 [LC-02]
NMDA induced current in hippocampal neurons (NMDA receptor; compound 10 μg/mL with NMDA 50 μM, rat hippocampal neurons 10-14 DIV): decreases in NMDA induced current | pooled NMDA current responses (normalized peak and plateau currents) (NMDA receptor): significantly inhibits NMDA-induced current | recovery of NMDA-induced current after compound was washed out (NMDA receptor): Partial recovery of NMDA-induced current | phosphorylation of ERK (ERK): induced phosphorylation of ERK after a 15-min treatment period and persisted to 60 min | phosphorylation of AKT (AKT): phosphorylated within 5-15 min

CCCC1(CCC)O[C@@H](CC)N[C@H]1CC(C)C [LC-06]
pooled NMDA current responses (normalized peak and plateau currents) (NMDA receptor): significantly inhibits NMDA-induced current | recovery of NMDA-induced current after compound was washed out (NMDA receptor): Partial recovery of NMDA-induced current
